In patent publication US9260485B2 (priority 2009, dated 2016):

Legend:
Assay in all cases: Multidrug resistance-reversing activity: effect on paclitaxel's cytotoxicity
Type in all cases: cell-based
HCT15/CL02 = conditions: Homo sapiens, HCT-15, TAX alone
Procedure: (§1) The cyclic pentadepsipeptides of Chemical Formulas 1 and 2 were analyzed for MDR-reversing activity by comparing inhibitory activities against multidrug-resistant cancer cell lines (MES-SA/DX5 and HCT15/CL02) with those against non-multidrug-resistant cancer cell lines (MES-SA and HCT15). In this regard, the effects of the cyclic pentadepsipeptides of Chemical Formulas 1 and 2 on paclitaxel's cytotoxicity against MDR tumor cells were measured (Table 6).

MES-SA = conditions: Homo sapiens, TAX alone
Procedure: as §1

HCT15 = conditions: Homo sapiens, HCT-15, TAX alone
Procedure: as §1

MES-SA/DX5 = conditions: Homo sapiens, TAX alone
Procedure: as §1

## CC(=O)O[C@H]1C(=O)[C@@]2(C)[C@H]([C@H](OC(=O)c3ccccc3)[C@]3(O)C[C@H](OC(=O)[C@H](O)[C@@H](NC(=O)c4ccccc4)c4ccccc4)C(C)=C1C3(C)C)[C@]1(OC(C)=O)CO[C@@H]1C[C@@H]2O [TAX, paclitaxel]
HCT15/CL02
  EC50: > 1000 nM
MES-SA
  EC50: 1 ± 0.2 nM
HCT15
  EC50: 0.85 ± 0.63 nM
MES-SA/DX5
  EC50: 10 ± 0.53 nM
